Reference: patent US8246966B2, “Trypanosome microsome system and uses thereof” (priority 2006, dated 2012)

Columns and labels:
[1] = tested on: T. brucei microsomes (TbRM); assay: Post-translational import of VSG-11786 into TbRM with inhibitors (Example 4); assay type: biochemical, Trypanosoma brucei
Procedure: FIGS. 7A to 7C. […] VSG-11786 mRNA was translated in rabbit reticulocyte lysate in the absence or presence of T. brucei cytosol for 1 hour at 37° C., and then cycloheximide was added to stop protein synthesis. TbRM (1 equivalent) and MAL3-101 (10 μM), MAL3-51 (10 μM), or an equal volume of DMSO was added to the samples on ice, and the mixture was incubated at 37° C. for 1.5 hours for translocation of VSG-11786 into the microsomes. Reaction mixtures were treated with proteinase K (PK) for one hour on ice. Proteolysis was terminated with PMSF. Proteins were precipitated with ammonium sulfate, pelleted by centrifugation, resuspended in SDS-PAGE sample buffer, and resolved by Tris-Tricine SDS-PAGE. Gel images were obtained with a phosphorimager and analyzed with Quantity-One software. Reaction mixtures for odd numbered lanes contained TbRM, but not proteinase K; even numbered lanes contained TbRM and proteinase K. Brackets denote lanes that were compared to obtain percentage of VSG-11786 import values. FIG. 7B is a graphical representation of data from FIG. 7A. […] In FIG. 7C, the effect of MAL3-101 on T. brucei growth.
FIGS. 8A to 8D. Effects of NFI028 and CAM741 on import of VSG-11786 into T. brucei microsomes. […] VSG-11786 mRNA was translated in rabbit reticulocyte lysate in the presence of T. brucei cytosol for one hour at 37° C., and then protein synthesis was stopped by the addition of cycloheximide. […] Reaction mixtures were treated with proteinase K (PK) on ice for one hour. Proteolysis was terminated with PMSF. Proteins were precipitated with ammonium sulfate, pelleted, resuspended in SDS-PAGE sample buffer, and resolved by Tris-Tricine SDS-PAGE. Images of radiolabeled proteins were obtained with a phosphorimager and quantitated with Quantity-One software. Samples depicted in odd numbered lanes contained TbRM, but were not treated proteinase K. Reaction mixtures shown in even numbered lanes contained TbRM and were treated with proteinase K. Brackets denote lanes that were compared to each other in order to obtain percentage of VSG-11786 import values. FIG. 8B is a graphical representation of data from FIG. 8A.
FIGS. 9A to 9D. Effects of azide, AEE788, and valinomycin on VSG-11786 import into T. brucei microsomes. […] VSG-11786 mRNA was translated in rabbit reticulocyte lysate in the presence of T. brucei cytosol for one hour at 37° C. Cycloheximide was added to stop proteins synthesis. TbRM (1 equivalent) and sodium azide (8 μM), AEE788 (8 μM), an equal volume of microsome buffer (RMB) or DMSO was added to the samples on ice, and the mixtures were incubated at 37 C for 1.5 hours. Reaction mixtures were treated with proteinase K (PK) on ice for one hour. Proteolysis was terminated with PMSF. Proteins were precipitated with ammonium sulfate, pelleted, resuspended in SDS-PAGE sample buffer, and resolved by Tris-Tricine SDS-PAGE. Images of radiolabeled proteins were obtained with a phosphorimager and quantitated with Quantity-One software. Brackets show lanes that were compared to each other in order to obtain percentage of VSG-11786 imported into TbRM. Lanes 1, 3, 5, & 7 were treated with TbRM, but not proteinase K. Lanes 2, 4, 6, & 8 were treated with TbRM and proteinase K. FIG. 9B is a graphical representation of data from FIG. 9A. […] Reaction mixtures depicted in odd lanes contained TbRM, but were not treated with proteinase K; even lanes contained TbRM and were treated with proteinase K. FIG. 9D is a graphical representation of data from panel FIG. 9C.

[2] = tested on: Bloodstream T. brucei CA427; assay: Bloodstream T. brucei cell culture drug susceptibility (Example 4); assay type: cell-based, Trypanosoma brucei; conditions: cultured bloodstream T. brucei; read-out: IG50, T. brucei growth
Procedure: Cell Culture. Bloodstream T. brucei cell culture and drug susceptibility studies were performed as previously described. Bloodstream T. brucei CA427 were cultured in HMI-9 media (Hirumi and Hirumi, 1994, Parasitol Today; 10(2):80-4) to a density of 10^6 cells/ml. Cells were seeded (500 μl of 4×10^4 cells/ml) to a 24-well plate and exposed to MAL3-101, CAM741, and NFI028 at listed concentrations (see figure legends) or an equal volume of DMSO. Cells were incubated at 37° C. and counted after 24 and 48 hours, using a hemocytometer.

bloodstream T. brucei = conditions: del Rayo Camacho et al., 2002; read-out: IC50 of drug used to treat human African trypanosomiasis; cited from earlier work

For CAM741, the “VSG-11786 import into TbRM” value ([1]; CAM741 1 μM, DMSO 74%) was 73% and the IC50 [2] was 2 µM.
In the case of `CCN1CCN(Cc2ccc(-c3cc4c(N[C@H](C)c5ccccc5)ncnc4[nH]3)cc2)CC1` [AEE788], the “inhibition of post-translational import of VSG-11786 into TbRM” value ([1]; AEE788 8 μM) is reported as “failed to inhibit”.
In the case of `N=C(N)c1ccc(OCCCCCOc2ccc(C(=N)N)cc2)cc1` [pentamidine], the IC50 (bloodstream T. brucei) is listed as 0.0003 µM.
In the case of `CC(C)[C@@H]1NC(=O)[C@H](C)OC(=O)[C@@H](C(C)C)NC(=O)[C@@H](C(C)C)OC(=O)[C@H](C(C)C)NC(=O)[C@H](C)OC(=O)[C@@H](C(C)C)NC(=O)[C@@H](C(C)C)OC(=O)[C@H](C(C)C)NC(=O)[C@H](C)OC(=O)[C@@H](C(C)C)NC(=O)[C@@H](C(C)C)OC1=O` [valinomycin], the “efficiency of VSG-11786 import into TbRM” value ([1]; valinomycin 0.5 μM) is reported as “not affected”.
For `Cc1ccc(C(=O)Nc2ccc(S(=O)(=O)O)c3cc(S(=O)(=O)O)cc(S(=O)(=O)O)c23)cc1NC(=O)c1cccc(NC(=O)Nc2cccc(C(=O)Nc3cc(C(=O)Nc4ccc(S(=O)(=O)O)c5cc(S(=O)(=O)O)cc(S(=O)(=O)O)c45)ccc3C)c2)c1` [suramin], the IC50 (bloodstream T. brucei) is given as 1.4 to 2.3 µM.
